Experimental data published in patent US20230026696A1, “TRPV4 RECEPTOR LIGANDS” (UNIVERSITY OF UTAH RESEARCH FOUNDATION, priority 2019, published 2023).
Counter-ions that a name gives are not always drawn.

Biological target: T1, human TRPV4 (Homo sapiens, UniProt Q9HBA0)
T1 construct: expressed in transfected cells
Test: Fluorometric cell-based Ca2+ flux assay, HEK-293 cells stably overexpressing human TRPV4
Details: HEK-293 stably overexpressing human TRPV4; agonist GSK1016790A 30 nM
Method: Fluorometric cell-based Ca^2+ flux assays were performed to assess TRPV4 antagonist activity and determine potency (IC50 values) in human embryonic kidney-293 cells (HEK-293) that stably overexpress human TRPV4. The assays were performed according to methods described in: Deering-Rice, C. E., Johansen, M. E., Roberts, J. K., Thomas, K. C., Romero, E. G., Lee, J., Yost, G. S., Veranth, J. M., and Reilly, C. A. (2012), Mol. Pharmacol. 81(3), 411-419; Shapiro, D., Deering-Rice, C. E., Romero, E. G., Hughen, R. W., Light, A. R., Veranth, J. M., and Reilly, C. A. (2013), Chem Res. Toxicol., 26, 750-758; and Deering-Rice, C. E., Mitchell, V. K., Romero, E. G., Abdel Aziz, M. H., and Reilly, C. A. (2014), Pharmacol. Res. & Perspectives. 2(5), 1-10.
The HEK-293 cells stably overexpressing human TRPV4 were grown to confluence in 2% (w/v) gelatin-coated 96-well plates in DMEM:F12 media supplemented with 5% fetal bovine serum, 1× penicillin/streptomycin (Invitrogen) and Geneticin (300 μg/mL).
The HEK-293 cells were prepared for assay by replacing the growth media with a 1:1 solution of LHC-9 and Fluo 4-Direct (Invitrogen) reagent containing Fluo 4-AM, pluronic F-127, probenecid, and a proprietary quencher dye. The cells were then incubated at 37° C. for 1 h in a cell culture incubator. The cells were subsequently washed by replacing the loading solution with LHC-9 containing 1 mM water-soluble probenecid (Invitrogen), 750 μM Trypan Red (ATT Bioquest), and a test compound (at various concentrations). The cells were incubated for an additional 30 minutes at 37° C. to allow for Fluo 4-AM cleavage and activation, as well as equilibration to both the test compounds and Fluo 4.
An agonist treatment solution (90 nM GSK1016790A, a potent activator of TRPV4) was prepared in LHC9 at 3× concentration and 25 μL was added to 50 μL of media on the cells in 96 well plates, providing a final concentration of 30 nM. Changes in cellular fluorescence were monitored with a BMG Labtech NOVOStar fluorescence plate reader for 1 minute at 37° C. Data were quantified as the maximum rate of change in fluorescence intensity (max ΔF/s), corrected for media only treatment (negative control), and represented as the percentage of response relative to the no antagonist control. A minimum of three replicates were used for each treatment condition, with a minimum of 8 concentrations to derive the IC50 values reported for each antagonist. The IC50 values for each antagonist, which are shown in Table 4 below, were calculated according to methods described in the assays were performed according to methods described in: Deering-Rice, C. E., Johansen, M. E., Roberts, J. K., Thomas, K. C., Romero, E. G., Lee, J., Yost, G. S., Veranth, J. M., and Reilly, C. A. (2012), Mol. Pharmacol. 81(3), 411-419; Shapiro, D., Deering-Rice, C. E., Romero, E. G., Hughen, R. W., Light, A. R., Veranth, J. M., and Reilly, C. A. (2013), Chem Res. Toxicol., 26, 750-758; and Deering-Rice, C. E., Mitchell, V. K., Romero, E. G., Abdel Aziz, M. H., and Reilly, C. A. (2014), Pharmacol. Res. & Perspectives. 2(5), 1-10.

T1 sequence (Q9HBA0 whole entry): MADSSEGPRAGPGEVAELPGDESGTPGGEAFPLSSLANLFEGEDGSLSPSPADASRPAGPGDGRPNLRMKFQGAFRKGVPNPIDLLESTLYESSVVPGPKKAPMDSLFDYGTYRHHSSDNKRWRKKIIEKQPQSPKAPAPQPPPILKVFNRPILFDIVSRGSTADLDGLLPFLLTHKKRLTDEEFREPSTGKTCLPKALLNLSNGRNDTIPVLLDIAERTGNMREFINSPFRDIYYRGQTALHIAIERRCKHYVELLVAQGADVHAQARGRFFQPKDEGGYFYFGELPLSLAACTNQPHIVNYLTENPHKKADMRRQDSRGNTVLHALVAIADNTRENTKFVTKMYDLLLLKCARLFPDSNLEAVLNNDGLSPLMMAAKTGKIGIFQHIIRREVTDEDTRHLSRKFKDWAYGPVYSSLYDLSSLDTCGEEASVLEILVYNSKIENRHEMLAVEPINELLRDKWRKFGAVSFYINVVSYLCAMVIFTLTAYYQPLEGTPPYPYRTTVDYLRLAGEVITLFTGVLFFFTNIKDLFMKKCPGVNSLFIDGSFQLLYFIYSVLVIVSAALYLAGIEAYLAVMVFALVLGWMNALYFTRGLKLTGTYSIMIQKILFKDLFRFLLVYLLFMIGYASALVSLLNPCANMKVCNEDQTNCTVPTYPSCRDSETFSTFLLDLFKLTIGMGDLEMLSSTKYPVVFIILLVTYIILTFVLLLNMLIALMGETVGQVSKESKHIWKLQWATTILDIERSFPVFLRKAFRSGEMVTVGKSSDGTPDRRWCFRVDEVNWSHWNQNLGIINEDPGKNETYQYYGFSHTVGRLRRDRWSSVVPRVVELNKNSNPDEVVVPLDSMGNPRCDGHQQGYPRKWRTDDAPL

SMILES | IC50
N#Cc1ccc(OCC2(CNCC(O)CO)CN(S(=O)(=O)c3ccc(Cl)cc3Cl)C2)cc1F (stereo not drawn) [Compound 33, 4-((1-((2,4-Dichlorophenyl)sulfonyl)-3-(((2,3-dihydroxypropyl)amino)methyl)azetidin-3-yl)methoxy)-2-fluorobenzonitrile hydrochloride] | 300 pM
CC(CO)CNCC1(COc2ccc(C#N)c(F)c2)CN(S(=O)(=O)c2ccc(Cl)cc2Cl)C1 (stereo not drawn) [Compound 34, 4-((1-((2,4-Dichlorophenyl)sulfonyl)-3-(((3-hydroxy-2-methylpropyl)amino)methyl)azetidin-3-yl)methoxy)-2-fluorobenzonitrile hydrochloride] | 200 pM
CC(O)CCNCC1(COc2ccc(C#N)c(F)c2)CN(S(=O)(=O)c2ccc(Cl)cc2Cl)C1 (stereo not drawn) [Compound 35, 4-((1-((2,4-dichlorophenyl)sulfonyl)-3-(((3-hydroxybutyl)amino)methyl)azetidin-3-yl)methoxy)-2-fluorobenzonitrile hydrochloride] | 700 pM
CCOC(=O)CCNCC1(COc2ccc(C#N)c(F)c2)CN(S(=O)(=O)c2ccc(Cl)cc2Cl)C1 [Compound 37, Ethyl 3-(((3-((4-Cyano-3-fluorophenoxy)methyl)-1-((2,4-dichlorophenyl)sulfonyl)azetidin-3-yl)methyl)amino)propanoate hydrochloride] | 3300 pM
N#Cc1ccc(OCC2(CN[C@H]3C[C@@H](O)C3)CN(S(=O)(=O)c3ccc(Cl)cc3Cl)C2)cc1F [Compound 38, 4-((1-((2,4-Dichlorophenyl)sulfonyl)-3-((((cis)-3-hydroxycyclobutyl)amino)methyl)azetidin-3-yl)methoxy)-2-fluorobenzonitrile hydrochloride] | 1800 pM

Results, then the compound that gave them:

IC50 | SMILES
300 pM | C[C@@H](O)CNCC1(COc2ccc(C#N)c(F)c2)CN(S(=O)(=O)c2ccc(Cl)cc2Cl)C1 [Compound 30, (R)-4-((1-((2,4-Dichlorophenyl)sulfonyl)-3-(((2-hydroxypropyl)amino)methyl)azetidin-3-yl)methoxy)-2-fluorobenzonitrile hydrochloride]
400 pM | C[C@H](O)CNCC1(COc2ccc(C#N)c(F)c2)CN(S(=O)(=O)c2ccc(Cl)cc2Cl)C1 [Compound 31, (S)-4-((1-((2,4-dichlorophenyl)sulfonyl)-3-(((2-hydroxypropyl)amino)methyl)azetidin-3-yl)methoxy)-2-fluorobenzonitrile hydrochloride]
300 pM | CC(CO)NCC1(COc2ccc(C#N)c(F)c2)CN(S(=O)(=O)c2ccc(Cl)cc2Cl)C1 (stereo not drawn) [Compound 32, 4-((1-((2,4-Dichlorophenyl)sulfonyl)-3-(((1-hydroxypropan-2-yl)amino)methyl)azetidin-3-yl)methoxy)-2-fluorobenzonitrile hydrochloride]
10000 pM | N#CCCNCC1(COc2ccc(C#N)c(F)c2)CN(S(=O)(=O)c2ccc(Cl)cc2Cl)C1 [Compound 36, 4-((3-(((2-Cyanoethyl)amino)methyl)-1-((2,4-dichlorophenyl)sulfonyl)azetidin-3-yl)methoxy)-2-fluorobenzonitrile]
1300 pM | N#Cc1ccc(OCC2(CN[C@H]3CC[C@@H](O)CC3)CN(S(=O)(=O)c3ccc(Cl)cc3Cl)C2)cc1F [Compound 39, 4-((1-((2,4-Dichlorophenyl)sulfonyl)-3-((((cis)-4-hydroxycyclohexyl)amino)methyl)azetidin-3-yl)methoxy)-2-fluorobenzonitrile hydrochloride]
13400 pM | N#Cc1ccc(OCC2(CNC[C@H]3CCCO3)CN(S(=O)(=O)c3ccc(Cl)cc3Cl)C2)cc1F [Compound 40, (R)-4-((1-((2,4-dichlorophenyl)sulfonyl)-3-((((tetrahydrofuran-2-yl)methyl)amino)methyl)azetidin-3-yl)methoxy)-2-fluorobenzonitrile hydrochloride]
300 pM | N#Cc1ccc(OCC2(CN[C@H]3CC[C@H](O)CC3)CN(S(=O)(=O)c3ccc(Cl)cc3Cl)C2)cc1F [Compound 41, 4-((1-((2,4-Dichlorophenyl)sulfonyl)-3-((((trans)-4-hydroxycyclohexyl)amino)methyl)azetidin-3-yl)methoxy)-2-fluorobenzonitrile hydrochloride]
